Data taken from US20210228771A1, “BIOLOGIC MATERIAL COMPRISING A CROSSLINKED STRUCTURAL PROTEIN AND MACROPHAGES SEEDED ON THE CROSSLINKED STRUCTURAL PROTEIN” (CASE WESTERN RESERVE UNIVERSITY, priority 2020, published 2021).

Key:
pSTAT6 and PPAR-γ = assay: Western blot of signaling pathways in genipin induced M2 polarization; type: cell-based, rat; conditions: genipin treated M0 (M0-GE)
Procedure: 7c. Investigation of signaling pathways involved in M2 polarization by genipin: A third set of experiments included the following groups: 1) Tissue culture plate with M2-polarization medium, 2) Tissue culture plate with M0-polarization medium with direct addition of genipin, 3) Tissue culture plate with M0-polarization medium. In this design, Groups 1 and 3 represent the positive and negative controls. Total cell lysate was prepared using RIPA lysis buffer (#50195822), phenylmethylsulfonylfluoride (PMSF) (#NC0417414) and protease/phosphatase inhibitor (#50193743) purchased from Cell Signaling Technology. The protein concentration in the cell lysate was estimated using DC protein assay (BioRad) and 25 μg protein was resolved using 4-20% Mini-PROTEAN gels (#4561094, BioRad) and transferred to a nitrocellulose membrane (#1620213, BioRad). The membrane was blocked in 5% non-fat dry milk/1% Tween 20 for 2 hr at room temperature. […] Following day, the blots were washed in TBST and incubated with anti-mouse secondary antibody (sc-516102) conjugated with horseradish peroxidase detected by ECL-chemiluminescence, then underwent autoradiography using BioBlue-Lite™ film (Alkali Scientific, FL). Quantitative analysis of the protein bands was performed using the Image J.

[1] = system: LPS-stimulated microglia cells derived from rat brain; conditions: cited from earlier work
[2] = 12.5 μg/ml; cited from earlier work
[3] = system: LPS-stimulated RAW 264.7 murine macrophages cell line; conditions: cited from earlier work
human endothelial cells = conditions: cited from earlier work
M0 macrophages = assay: Western blot (arginase-1) of M0 macrophages with direct addition of genipin to culture medium; type: cell-based, rat; conditions: for arginase-1 expression in genipin treated M0 (M0-GE): 12.5 μg/ml genipin added directly to culture medium, versus cytokine induced M2
Excerpt: 7b. […] A second set of experiments included the following groups: 1) Tissue culture plate with M0-polarization medium, 2) Tissue culture plate with M1-polarization medium, 3) Tissue culture plate with M2-polarization medium, 4) Tissue culture plate with M0-polarization medium with direct addition of genipin, 5) M0 subtype cells seeded on uncrosslinked collagen threads, 6) M0 subtype cells seeded on genipin crosslinked collagen threads. In this design, Groups 1-3 constitute the positive controls. […] Comparison of group 5 with group 6 determines how genipin crosslinking of collagen affect the polarization status of M0 subtype. For group 4, genipin (Wako Pure Chemical Industries, catalog #078-03021, Richmond, Va.) in 0.1% dimethyl sulfoxide (DMSO, Sigma-Aldrich, USA) (12.5 μg/ml, genipin/DMSO) was directly added to the culture medium. […] Total cell lysate was prepared using RIPA lysis buffer (#50195822), phenylmethylsulfonylfluoride (PMSF) (#NC0417414) and protease/phosphatase inhibitor (#50193743) purchased from Cell Signaling Technology. The protein concentration in the cell lysate was estimated using DC protein assay (BioRad) and 25 μg protein was resolved using 4-20% Mini-PROTEAN gels (#4561094, BioRad) and transferred to a nitrocellulose membrane (#1620213, BioRad). The membrane was blocked in 5% non-fat dry milk/1% Tween 20 for 2 hr at room temperature. They were incubated with primary antibodies anti-Arg1 for M2 (sc-271430), anti-iNOS for M1 (sc-7271), pSTAT6 (#9361S), PPAR-gamma (sc-7273) and anti-GAPDH (sc-365062) as the housekeeping protein overnight at 4° C. Following day, the blots were washed in TBST and incubated with anti-mouse secondary antibody (sc-516102) conjugated with horseradish peroxidase detected by ECL-chemiluminescence, then underwent autoradiography using BioBlue-Lite™ film (Alkali Scientific, FL). Quantitative analysis of the protein bands was performed using the Image J.

SMILES: COC(=O)C1=CO[C@@H](O)[C@@H]2C(CO)=CC[C@H]12 [genipin]
- pSTAT6 expression (pSTAT6 and PPAR-γ): significantly higher compared to M2 polarization induced by IL-4
- IL-10 and TNF-α production [1]: leads to IL-10 and TNF-α production
- toxicity of genipin concentration [2]: subtoxic
- TNF-α and IL-6 (pro-inflammatory markers) [3]: suppress
- TNF-α-induced VCAM-1 expression (human endothelial cells): suppress
- arginase-1 expression in genipin treated M0 (M0-GE) (M0 macrophages): higher than for the M2 subtype induced with standard cytokines
- arginase-1 expression in genipin treated M0 (M0-GE) (M0 macrophages; listed as soluble genipin): moderately greater than a potent cytokine
- increase in Arg1 expression, soluble genipin compared to genipin presented via crosslinked collagen (M0 macrophages; M0GE vs. M0GES): approximately 3 fold
